# Assay results reported in US20250215051A1, “Transmembrane Allosteric Short Peptides Modulating Human Mu-Opioid Receptor for Analgesic Effects and Covalent Steroid Modifications of Transmembrane Allosteric Peptides for Enhanced Mu-Opioid Receptor Interaction in Chronic Pain Therapies” (Mu42 SPOLKA Z OGRANICZONA ODPOWIEDZIALNOSCIA, priority 2023, published 2025).
# No end group written: not given here.
# Target: T1, mu-opioid receptor (MOR) (Homo sapiens, UniProt P35372)
# T1 construct: expressed in transfected cells; host or cells: CHO-K1
# T1 sequence (P35372 whole entry): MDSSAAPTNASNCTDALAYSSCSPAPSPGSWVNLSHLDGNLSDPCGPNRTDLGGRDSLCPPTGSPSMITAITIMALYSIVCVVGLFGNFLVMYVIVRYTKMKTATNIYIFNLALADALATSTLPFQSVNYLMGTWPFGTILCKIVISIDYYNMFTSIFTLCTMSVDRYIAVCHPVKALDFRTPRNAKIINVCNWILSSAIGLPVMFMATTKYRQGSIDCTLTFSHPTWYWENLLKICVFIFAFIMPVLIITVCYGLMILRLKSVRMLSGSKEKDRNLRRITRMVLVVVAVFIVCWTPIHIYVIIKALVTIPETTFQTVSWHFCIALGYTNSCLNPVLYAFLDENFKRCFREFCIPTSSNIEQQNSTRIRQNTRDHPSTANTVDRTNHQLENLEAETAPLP
# Assay: functional cellular cAMP assay on CHO-K1 cell lines expressing MOR, co-administration with orthosteric ligand
# Format: cell-based
# Conditions: for Allosteric activity level (%): 0% = reference agonist at EC20, 100% = maximum activity of reference agonist; for EC50: logEC50(M), log of molar EC50, CHO-K1 cells expressing MOR, cAMP
# Description: The properties and functionality of these peptidosteroids were validated using standard experimental methods. To evaluate their allosteric modulation capabilities, functional cellular assays were conducted on CHO-K1 cell lines expressing MOR. These assays utilized fluorescent techniques to measure intracellular cAMP levels as a marker of receptor activity.
# The peptidosteroids were tested in co-administration with orthosteric ligands, such as morphine and DAMGO, to assess their ability to influence receptor signaling.
# The table below provides additional data on the binding motifs (Candidates 1 and 2) and the resulting peptidomimetics (Candidate 3), offering a detailed comparison of their activity. The percentage values are normalized such that 0% corresponds to the activity of the reference agonist at EC20, while 100% represents the maximum activity of the reference agonist.
Substance,Allosteric activity level (%) (agonist present DAMGO),Allosteric activity level (%) (agonist present morphine),EC50 (agonist present DAMGO (EC20)),EC50 (agonist present morphine)
"VCAVGLWGNWLVM [sequence-1, VCAVGLWGNWLVM]",23.64%,21.67%,4.57e-06 M,1e-06 M
"YPWFYL [sequence-4, YPWFYL]",24.64%,–,1.35e-06 M,–
